Reference: patent US20060210614A1, “Method of treatment of a metabolic disease using intranasal administration of exendin peptide” (Nastech Pharmaceutical Company Inc., priority 2003, published 2006)
Like-named read-outs stand apart in the source and are kept apart here.

Tests used:
[1] = Physical stability (clarity, absorbance at 630 nm) after storage at 5° C.
Protocol: In vitro optimization of the exenatide formulation included a preservatives screen. Physical stability after storage at 5° C. was measured for all formulations tested in vitro. Exenatide formulations were placed in 1 cc glass vials and closed with trifoil lined caps and stored at 5° C. for at least two weeks. Physical stability was monitored by measuring clarity. Clarity of a formulation was determined by measuring absorbance at 630 nm, using the μQuant optical density plate reader for each formulation at days 0, 7, and 14. A 200 μL volume from each vial was placed in a 96-well plate and read against a background of water.
Varying concentrations of sodium benzoate (NaBenz) and benzalkonium chloride (BAK), were screened for their effect on physical stability of the three formulations used in in vivo studies. Sodium benzoate was added at […], while BAK was tested at 0.2, 1.0, 2.0, and 4.0 mg/mL. To prepare the samples, varying amounts of stock solutions of the two preservatives were added to the three prepared formulations dosed in the PK study. […] The resulting formulations were stored at 5° C. for 5.5 weeks. Physical stability was monitored by measuring the absorbance of the solution at 630 nm.
Sodium benzoate was added at concentrations of 1.0 to 5.0 mg/mL, while BAK was tested at 0.05, 0.075, and 0.1 mg/mL. To prepare the samples, varying amounts of stock solutions of the two preservatives were added to the formulations prepared in the PK study and the pH was adjusted to 4.5 with HCl as necessary. The resulting formulations were stored at 5° C. for 4 weeks. Physical stability was monitored by measuring the absorbance of the solution at 630 nm.

[2] = test system: normal, human-derived tracheal/bronchial epithelial cells (EpiAirway™ Tissue Model); conditions: exenatide formulation containing the excipient; LDH and MTT
Protocol: The amount of cell death was assayed by measuring the loss of lactate dehydrogenase (LDH) from the cells using a CytoTox 96 Cytoxicity Assay Kit (Promega Corp., Madison, Wis.). Fresh, cell-free culture medium was used as a blank. 50 μl harvested media (stored at 4° C.) was loaded in a 96-well plate. Substrate Solution (50 μl) was added to each well and the plates were incubated for thirty (30) minutes at ambient temperature in the dark. Following incubation, 50 μl of Stop Solution was added to each well and the reaction was monitored at A490 using an optical density plate reader. Media alone applied to the apical side served as a negative control while triton X served as the positive control for the LDH assay.
The optical density of the samples was measured at A550 on an optical density plate reader (Molecular Devices, Palo Alto, Calif.). Media alone applied to the apical side served as a […] for the MTT assay.
A second round of studies, series B, systematically screened several excipients for their potential to enhance exenatide permeation to a greater degree than the Me-β-CD, DDPC, EDTA, and gelatin combinations. […] As with series A formulations, each formulation was evaluated for exenatide permeation, ability to reduce TER while not adversely affecting cell viability, and formulation physical stability.

[3] = test system: epithelial tissue barrier (EpiAirway™ Tissue Model); assay: In vitro permeation of Fluorescein-Exendin-4 across the cellular barrier; conditions: for Fold increase in exenatide permeation over AKL-225-126-2: one hour incubation, full dose volume
Source text: A standard curve was generated over the relevant quantitation range. […] Initial studies focused on optimizing the concentrations of Me-β-CD, DDPC, EDTA and gelatin to enhance exenatide permeation across an epithelial tissue layer.

[4] = test system: aminopeptidases; conditions: cited from earlier work
[5] = aqueous solution at physiologic pH; cited from earlier work
[6] = anesthetized rats, cited from earlier work
[7] = test system: normal, human-derived tracheal/bronchial epithelial cells (EpiAirway™ Tissue Model); assay: Transepithelial Electrical Resistance (TER) measurements using an in vitro nasal epithelial model; assay type: cell-based; conditions: 60 minute exposure
Source text: The cell line MatTek Corp. (Ashland, Mass.) was used as the source of normal, human-derived tracheal/bronchial epithelial cells (EpiAirway™ Tissue Model). The cells are highly differentiated and retain all the properties of respiratory epithelial tissue. The cells were provided as inserts grown to confluence on Millipore Milicell-CM filters comprised of transparent hydrophilic Teflon (PTFE). […] TER measurements were accomplished using the Endohm-12 Tissue Resistance Measurement Chamber connected to the EVOM Epithelial Voltohmmeter (World Precision Instruments, Sarasota, Fla.) with the electrode leads. The electrodes and a tissue culture blank insert were equilibrated for at least twenty (20) minutes in phosphate buffered solution with the power off prior to checking calibration. The background resistance was measured with 1.5 mL media in the Endohm tissue chamber and 300 μL media in a blank Millicell-CM insert. […] The background resistance of the blank insert was 5-12 ohms.
TER was measured before and after the sixty (60) minute incubation. […] After the 60 minute incubation with test samples, 200 μL of fresh media was gently added to the apical surface of each test sample insert and final TER was measured for each insert. […] Resistance is expressed as follows: (resistance measured−blank)×0.6 cm^2.

[8] = 5° C. (refrigerated), at least two weeks, absorbance at 630 nm

Row | Molecule | Physical stability / clarity (in words) [1, 8] | Toxicity / cell viability (in words) [2] | also measured
1 | CCCCCCCCCCCCCCCC(=O)OC(CC(=O)[O-])C[N+](C)(C)C (racemic) [Palmitoyl-DL-carnitine, palmitoyl-DL-carnitine] | physically instable without Me-β-CD | toxic at high concentrations | 
2 | O=C(O)CN(CCN(CC(=O)O)CC(=O)O)CC(=O)O [EDTA, ethylene diamine tetraacetic acid] |  | at 10 mg/mL EDTA, cell viability began to decrease | 
3 | CCCCCCCCO[C@H]1O[C@H](CO)[C@@H](O)[C@H](O)[C@H]1O [Octyl-α-glucopyranoside] |  |  | Fold increase in exenatide permeation over AKL-225-126-2 [3]: not more than 1.5 fold
4 | C[C@H](CCC(=O)NCC(=O)[O-])[C@H]1CC[C@H]2[C@@H]3[C@H](O)C[C@@H]4C[C@H](O)CC[C@]4(C)[C@H]3C[C@H](O)[C@]12C.[Na+] [Sodium glycocholate, sodium glycocholate] | physically instable at high concentrations |  | 
5 | CCCCCCCC/C=C\CCCCCCCC(=O)OCCOCC(OCCO)C1OCC(OCCO)C1OCCO (stereo not drawn) [Tween-80] |  |  | Exenatide permeation across the tissue barrier (in words) ([3]; human, 1 h): failed to enhance exenatide permeation to the same extent as formulation AKL-225-126-2
6 | CCCCCCCCCCCCC[N+](C)(C)Cc1ccccc1 [benzalkonium chloride (BAK), benzalkonium chloride] |  | decreasing cell viability with increasing BAK concentration | Physical stability / clarity (in words) [1]: remained physically stable for two weeks at 5 °C
7 | CC(C)CC(N)B(O)O (stereo not drawn) [boro-leucine] |  |  | Times more effective in enzyme inhibition than bestatin [4]: more than 100 times; Times more effective in enzyme inhibition than puromycin [4]: more than 1000 times
8 | CCN(CC)/[N+]([O-])=N/O.CCNCC [diethylamine/NO] |  |  | Rate (time) of NO release [5]: < 3 min
9 | NCCN(CCN)/[N+]([O-])=N/O [diethylenetriamine/NO] |  |  | Rate (time) of NO release [5]: approximately 20 hours
10 | CCCCCCCCC(=O)OC[C@H](COP(=O)([O-])OCC[N+](C)(C)C)OC(=O)CCCCCCCC [dinonanoyl glycero phosphatidylcholine, Di Nonanoyl Glycero Phosphatidylcholine (9:0)] | becoming turbid in less than two weeks at refrigerated conditions |  | 
11 | CCCCCCCCO[C@@H]1O[C@H](CO)[C@H](O)[C@H](O)[C@H]1O [galactopyranoside, n-Octyl-β-D-galactopyranoside] |  | toxic at 10 mg/mL | 
12 | CCCCCCCCO[C@@H]1O[C@H](CO)[C@@H](O[C@H]2O[C@H](CO)[C@@H](O)[C@H](O)[C@H]2O)[C@H](O)[C@H]1O [n-octyl-β-D-maltopyranoside, n-Octyl-β-D-maltopyranoside] |  |  | Fold increase in exenatide permeation over AKL-225-126-2 [3]: not more than 1.5 fold
13 | CCCCCCCC/C=C\CCCCCCCC(=O)O [oleic acid] |  | 3 mg/mL oleic acid resulted in lowered cell viability | 
14 | O=C([O-])c1ccccc1.[Na+] [sodium benzoate] | 2 mg/mL of more sodium benzoate became turbid within 14 days at 5 °C |  | 
15 | CCCCCCCCCC(=O)[O-].[Na+] [sodium caprate] | physical instability in the absence of Me-β-CD | low cell viability at 50 mM alone | 
16 | CCCCCCCC(=O)[O-].[Na+] [sodium caprylate] | physical instability in the absence of Me-β-CD | toxic at 20 mM with Me-β-CD and EDTA | 
17 | OC[C@H]1O[C@@H]2O[C@H]3[C@H](O)[C@@H](O)[C@@H](O[C@H]4[C@H](O)[C@@H](O)[C@@H](O[C@H]5[C@H](O)[C@@H](O)[C@@H](O[C@H]6[C@H](O)[C@@H](O)[C@@H](O[C@H]7[C@H](O)[C@@H](O)[C@@H](O[C@H]8[C@H](O)[C@@H](O)[C@@H](O[C@H]1[C@H](O)[C@H]2O)O[C@@H]8CO)O[C@@H]7CO)O[C@@H]6CO)O[C@@H]5CO)O[C@@H]4CO)O[C@@H]3CO [β-cyclodextrin] | became turbid at refrigerated conditions |  | 
18 | Dodecanoylsucrose |  | toxic at 10 mg/mL | Fold increase in exenatide permeation over AKL-225-126-2 [3]: not more than 1.5 fold
19 | dimethyl-β-cyclodextrin [DMe-β-CD] |  | more toxic to the cells than Me-β-CD | Fold increase in exenatide permeation over AKL-225-126-2 [3]: 1.5 fold
20 | human growth hormone: human growth hormone given nasally to anesthetized rats, without and with N-acetyl-L-cysteine |  |  | Nasal bioavailability of human growth hormone ([6]; with N-acetyl-L-cysteine (ACS)): 12.2%; Nasal bioavailability of human growth hormone ([6]; without N-acetyl-L-cysteine): 7.5%
21 | hydroxypropyl-β-cyclodextrin [HP-β-CD] |  |  | Exenatide permeation across the tissue barrier (in words) ([3]; excipient screen, compared with AKL-225-126-2 or control without enhancers): did not increase permeation significantly
22 | triton X |  |  | Effect on TER (in words) [7]: lowest possible TER
